{"source": "patent US20090191173A1", "about": "“Induction Of Neurogenesis And Stem Cell Therapy In Combination With Copolymer 1” (priority 2004, published 2009)", "key": {"[1]": {"system": "microglia", "assay": "TNF-α and IGF-I expression in treated microglia (RT-PCR, immunocytochemistry)", "type": "cell-based, mouse", "settings": "IFN-γ 20 ng/ml", "source_text": "(vi) Immunocytochemistry. Cover slips from co-cultures of NPCs and mouse microglia were washed with PBS, fixed as described above, treated with a permeabilization/blocking solution containing 10% FCS, 2% bovine serum albumin, 1% glycine, and 0.1% Triton X-100 (Sigma-Aldrich, Rehovot) and stained with a combination of the mouse or rabbit anti-tubulin β-III-isoform C-terminus antibodies (β-III-tubulin; 1:500), rabbit anti-NG2 chondroitin sulfate proteoglycan (NG2; 1:500), mouse anti-RIP (RIP; 1:2000), mouse anti-galactocerebroside (GalC; 1:250), mouse anti-glutamic acid decarboxylase 67 (GAD; 1:1000), mouse anti-nestin (Nestin; 1:1000), rat anti-myelin basic protein (MBP; 1:300) (all from Chemicon, Temecula, Calif.), goat anti-double cortin (DCX; 1:400, Santa Cruz Biotechnology, Santa Cruz, Calif.) and mouse anti-glial fibrillary acidic protein (GFAP; 1:100, Sigma-Aldrich, St. Louis). […] Expression of IGF-1 was detected by goat anti-IGF-1 (1:20, R&D Systems). […]\nWe assayed the expression of specific mRNAs using semi-quantitative reverse transcription PCR (RT-PCR) with selected gene-specific primer pairs, using OLIGO v6.4 (Molecular Biology Insights, Cascade, Colo.).\nThe RT-PCR reactions were carried out using 1 μg of cDNA, […] of each primer, and ReadyMix PCR Master Mix (ABgene, Epsom, UK) in 30-μl reactions. […] Signals were quantified using a Gel-Pro analyzer 3.1 (Media Cybernetics)."}, "[2]": {"system": "aNPCs", "assay": "Neuronal differentiation of aNPCs with CD4+ T cells, T cell-conditioned medium or cytokines", "type": "cell-based, mouse", "settings": "5 days in culture with cytokine, concentrations as low as 1 ng/ml", "experimental": "(xvii) Co-culturing of neural progenitor cells and T cells. CD4+ T cells were purified from lymph nodes of 8-week-old C57B16/J mice as previously described (Kipnis et al., 2004). T cells were activated in RPMI medium supplemented with L-glutamine (2 mM), 2-mercaptoethanol (5×10^−5 M), sodium pyruvate (1 mM), penicillin (100 IU/ml), streptomycin (100 μg/ml), nonessential amino acids (1 ml/100 ml), and autologous serum 2% (v/v) in the presence of mouse recombinant IL-2 (mrIL-2; 5 ng/ml) and soluble anti-CD28 and anti-CD3. antibodies (1 ng/ml). T cells were co-cultured (5×10^4 cells/well) with aNPCs (5×10^4 cells/well) for 5 d on cover slips coated with Matrigel (BD Biosciences) in 24-well plates. The cultures were then fixed with 2.5% paraformaldehyde in PBS for 30 min at room temperature and stained for neuronal markers.\nWe therefore sought to determine whether direct interaction between aNPCs and T cells would also result in an altered pattern of aNPC differentiation. To address this question, we activated CD4+ T cells in vitro by a cognate protocol (with anti-CD3 antibodies, anti-CD28 antibodies, and IL-2) for 24 h and then allowed their activation to continue in co-cultures with aNPCs in a transwell culture system. […] After 5 days in culture the aNPCs in the lower chamber were fixed and analyzed for the appearance of newly formed neurons. […]"}}}
{"substance": "IFN-γ: recombinant interferon-γ", "values": [{"measurement": "IGF-I mRNA in microglia as a function of time", "setting": "[1]", "value": "down-regulation of IGF-I"}, {"measurement": "TNF-α production by microglia as a function of time", "setting": "[1]", "value": "transient increase in TNF-α production"}, {"measurement": "β-III-tubulin expression in aNPCs", "setting": "[2]", "value": "could induce an increase in β-III-tubulin expression"}]}
